Data on four compounds can be found in article doi:10.1101/2024.12.18.629081v1 (biorxiv, 2024).

SMILES strings stand for the structures.

In one assay the target is FGFR3 (Homo sapiens, UniProt P22607). Kind of assay: SPR. The format is binding.
In another assay the target is T1, GCK (Homo sapiens, UniProt P35557).
T1 sequence (P35557 1-465): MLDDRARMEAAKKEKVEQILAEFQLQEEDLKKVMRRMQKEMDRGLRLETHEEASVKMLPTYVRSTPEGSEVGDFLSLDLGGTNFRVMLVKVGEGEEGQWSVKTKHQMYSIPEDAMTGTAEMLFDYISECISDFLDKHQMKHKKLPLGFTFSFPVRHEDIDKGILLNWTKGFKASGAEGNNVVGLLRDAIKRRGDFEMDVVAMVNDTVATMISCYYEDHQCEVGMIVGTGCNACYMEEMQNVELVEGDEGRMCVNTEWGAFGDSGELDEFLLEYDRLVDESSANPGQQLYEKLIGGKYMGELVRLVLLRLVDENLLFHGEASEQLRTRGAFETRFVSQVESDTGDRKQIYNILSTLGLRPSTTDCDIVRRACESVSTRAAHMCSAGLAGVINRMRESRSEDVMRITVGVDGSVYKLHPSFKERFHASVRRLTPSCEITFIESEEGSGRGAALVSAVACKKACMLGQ
Kind of assay: G6PDH-coupled activation assay, A340. In kind it is biochemical.

FGFR3, sequence (P22607 449-759): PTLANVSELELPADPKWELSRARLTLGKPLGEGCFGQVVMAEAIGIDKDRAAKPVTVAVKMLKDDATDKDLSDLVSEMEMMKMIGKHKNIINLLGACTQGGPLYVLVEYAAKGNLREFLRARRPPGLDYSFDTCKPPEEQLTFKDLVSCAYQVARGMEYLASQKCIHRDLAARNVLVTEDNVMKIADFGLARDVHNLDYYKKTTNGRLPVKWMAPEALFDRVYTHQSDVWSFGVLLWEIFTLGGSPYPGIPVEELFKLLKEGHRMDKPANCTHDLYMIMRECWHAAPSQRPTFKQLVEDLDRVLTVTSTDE

A word on the Kd: it is the constant that tells how readily two partners part at equilibrium. `Nc1nc2c(s1)[C@H](c1ccccc1OCc1ccc(Cl)cc1)CC(=O)N2` [F42] yielded a Kd on FGFR3 of 61.4 µM.
Same read-out and setting: the same measure for `Nc1nc2c(s1)[C@H](c1ccc(F)cc1)CC(=O)N2` [F4]: 599 µM.
A word on the EC50: it is the concentration that produces a half-maximal response. Read a low EC50 as an effect from little substance. Consider `CNc1ccc(Sc2nnc[nH]2)nc1C(=O)Nc1nccs1` [G0], for which, on GCK, it took 1.81 ± 0.28 µM to reach a half-maximal effect (EC50).
In the case of `Cc1cccc(Nc2ccc(Sc3nnc[nH]3)nc2C(=O)Nc2nccs2)c1` [G11], the concentration giving a half-maximal response (EC50) at GCK is 0.15 µM.
